Data taken from patent US12714671B2, “Cell membrane lipid-extracted nanoparticles (CLENs) for selective targeting, image analysis and cancer therapy” (priority 2018, dated 2026).
Structures can show the parent of a compound that is named as a salt.

Tested on: 4T1 cells
Test: Cytotoxicity of doxorubicin-loaded CLENs (SRB assay)
Type: cell-based, murine
Settings: 24 h, free doxorubicin 0.5 μmol/ml
Procedure: 4T1 cells were seeded at 1×10^4 per ml in a 48-well plate. Cells were exposed to different concentrations of doxorubicin-loaded CLENs (4T1, BT-20, and SKBR-3). SRB assay was used to determine percent of cell viability 24 hours following exposure to doxorubicin (5 mol %). Error bars indicate mean±S.D. (n=6).
Sulforhodamine B (SRB) assay was used to determine percent viability of control based on the amount of basic proteins in viable cells following exposure to different CLENs. Cells were seeded at 1×10^4 per ml in a 48-well plate. Columns of cells in the 48 well plate were exposed to either doxil, free doxorubicin, SKBR-3, BT-20 or 4T1 CLENs-loaded with doxorubicin (5 mol %). […] Finally, 1 mL of 1×PBS was added to each well and the plate was analyzed using a fluorescence microplate reader. The fluorescence intensity was measured at excitation wavelength of 540/20 nm and emission wavelength of 590/20 nm using FLX 800 Fluorescence Microplate Reader (Bio-tech Instruments, Winooski, VT).
Enhanced cellular uptake and selective drug targeting are important features of a drug delivery system, but how each translates overall to therapy is critical to success. For this reason, cytotoxicity of three different doxorubicin-loaded CLENs was evaluated for 4T1, BT-20 and SKBR-3 variety, doxil, and free doxorubicin (0.5 μmol/ml) against the growth of 4T1 cells in vitro. […]

For `COc1cccc2c1C(=O)c1c(O)c3c(c(O)c1C2=O)C[C@@](O)(C(=O)CO)C[C@@H]3O[C@H]1C[C@H](N)[C@H](O)[C@H](C)O1` [free doxorubicin, Doxorubicin hydrochloride], the “cytotoxicity against growth of 4T1 cells (comparison in words)” value was “No significant difference in cytotoxicity”.
